In patent publication US11590116B2 (THERAVANCE BIOPHARMA R&D IP, LLC, priority 2019, dated 2023):

What was measured:
[1] = system: TGF-β-stimulated SMAD3 phosphorylation in BEAS-2B cells; assay: Cellular ALK5 potency assay, inhibition of TGF-β stimulated pSMAD3 formation in BEAS-2B cells; type: cell-based; conditions: Homo sapiens; inhibition of TGF-β stimulated pSMAD3 formation, BEAS-2B cells; read-out: BEAS2B pIC50 (converted)
Outline: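 pSMAD3 was quantified by AlphaLISA in BEAS-2B lysates after 10 ng/mL TGF-β (final) for 30 min. Before stimulation, cells received compound for 1 h at 37° C in supplemented HBSS. Values are pIC50, relative to TGF-β-stimulated cells without compound.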

[2] = target: T1, recombinant human ALK5 (TGF-βR1) protein (Homo sapiens, UniProt P36897); assay: Biochemical ALK5 (TGF-βR1) assay to measure pKi (LANCE Ultra ULight kinase assay); conditions: apparent pKi from pIC50 by Cheng-Prusoff, read-out: ALK5 pKi (converted)
T1 construct: purchased Life Technologies PR9075A
T1 sequence (P36897 34-503): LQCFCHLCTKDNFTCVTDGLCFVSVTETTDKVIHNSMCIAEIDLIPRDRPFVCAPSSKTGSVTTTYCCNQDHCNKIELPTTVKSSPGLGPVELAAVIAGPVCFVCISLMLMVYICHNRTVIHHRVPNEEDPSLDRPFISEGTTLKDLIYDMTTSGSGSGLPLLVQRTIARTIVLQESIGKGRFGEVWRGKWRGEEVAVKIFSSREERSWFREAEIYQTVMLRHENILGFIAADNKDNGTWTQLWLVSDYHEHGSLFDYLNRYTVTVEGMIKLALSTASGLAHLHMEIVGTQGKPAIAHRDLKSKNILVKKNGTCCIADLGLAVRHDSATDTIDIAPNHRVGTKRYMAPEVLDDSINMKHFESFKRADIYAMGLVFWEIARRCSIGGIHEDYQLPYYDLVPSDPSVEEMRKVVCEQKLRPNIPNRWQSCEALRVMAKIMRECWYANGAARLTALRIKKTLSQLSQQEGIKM
Outline: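 Compounds (10 μM to 25 pM) were preincubated 60 min at room temperature with enzyme, then reactions were started with ATP (125 μM stock, 5× final) and run 60 min at 37 °C. EDTA-containing Eu-anti-phospho-Topo IIα (Thr1342) antibody stopped the reaction; TR-FRET read at 665 nm. pIC50 from 4-parameter fit, converted to pKi via Cheng-Prusoff.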

Row | Structure (SMILES) | IC50 [1] | Ki [2]
1 | Cc1cccc(-c2[nH]cnc2-c2ccc3ncc(-c4ccnc(C(=O)O)c4)cc3c2)n1 [Compound 1092, 4-[6-[5-(6-methyl-2-pyridyl)-1H-imidazol-4-yl]-3-quinolyl]pyridine-2-carboxylic acid] | 1580 to 10000 nM | < 0.0316 nM
2 | Cc1cccc(-c2[nH]cnc2-c2ccc3ncc(-c4nccc(C(=O)O[C@@H]5CCNC5)n4)cc3c2)n1 [Compound 1093, [(3R)-pyrrolidin-3-yl] 2-[6-[5-(6-methyl-2-pyridyl)-1H-imidazol-4-yl]-3-quinolyl]pyrimidine-4-carboxylate] | 200 to 1260 nM | 0.398 to 3.16 nM
3 | Cc1cccc(-c2[nH]cnc2-c2ccc3ncc(-c4ccc(C(=O)OC5CCNCC5)cn4)cc3c2)n1 [Compound 1094, 4-piperidyl 6-[6-[5-(6-methyl-2-pyridyl)-1H-imidazol-4-yl]-3-quinolyl]pyridine-3-carboxylate] | 25.1 to 158 nM | < 0.0316 nM
4 | Cc1cccc(-c2[nH]ncc2-c2ccc3nccc(C(=O)OC[C@H]4CCCCN4)c3c2)n1 [Compound 1095, [(2R)-2-piperidyl]methyl 6-[5-(6-methyl-2-pyridyl)-1H-pyrazol-4-yl]quinoline-4-carboxylate] | 25.1 to 158 nM | 0.398 to 3.16 nM
5 | Cc1cccc(-c2[nH]cnc2-c2ccc3ncc(-c4csc(C(=O)OCCN5CCNCC5)n4)cc3c2)n1 [Compound 1096, 2-piperazin-1-ylethyl 4-[6-[5-(6-methyl-2-pyridyl)-1H-imidazol-4-yl]-3-quinolyl]thiazole-2-carboxylate] | 25.1 to 158 nM | 0.0398 to 0.316 nM
6 | Cc1cccc(-c2[nH]cnc2-c2ccc3nccc(C(=O)O)c3c2)n1 [Compound 1097, 6-[5-(6-methyl-2-pyridyl)-1H-imidazol-4-yl]quinoline-4-carboxylic acid] | 200 to 1260 nM | 0.398 to 3.16 nM
7 | Cc1cccc(-c2[nH]cnc2-c2ccc3ncc(-c4nccc(C(=O)OCC5CNC5)n4)cc3c2)n1 [Compound 1098, azetidin-3-ylmethyl 2-[6-[5-(6-methyl-2-pyridyl)-1H-imidazol-4-yl]-3-quinolyl]pyrimidine-4-carboxylate] | 200 to 1260 nM | 0.0398 to 0.316 nM
8 | Cc1cccc(-c2[nH]cnc2-c2ccc3ncc(-c4ccnc(C(=O)OCCN5CCNCC5)c4)cc3c2)n1 [Compound 1099, 2-piperazin-1-ylethyl 4-[6-[5-(6-methyl-2-pyridyl)-1H-imidazol-4-yl]-3-quinolyl]pyridine-2-carboxylate] | 200 to 1260 nM | 0.0398 to 0.316 nM
9 | Cc1cccc(-c2[nH]cnc2-c2ccc3ncc(-c4cccc(N5CCNCC5)n4)cc3c2)n1 [Compound 1100, 6-[5-(6-methyl-2-pyridyl)-1H-imidazol-4-yl]-3-(6-piperazin-1-yl-2-pyridyl)quinoline] | < 20 nM | 0.0398 to 0.316 nM
10 | Cc1cccc(-c2[nH]cnc2-c2ccc3ncc(-c4ncc(C(=O)OC5CCNCC5)cn4)cc3c2)n1 [Compound 1101, 4-piperidyl 2-[6-[5-(6-methyl-2-pyridyl)-1H-imidazol-4-yl]-3-quinolyl]pyrimidine-5-carboxylate] | 25.1 to 158 nM | 0.0398 to 0.316 nM
11 | Cc1cccc(-c2[nH]cnc2-c2ccc3ncc(-c4nccc(C(=O)OC5CCNCC5)n4)cc3c2)n1 [Compound 1102, 4-piperidyl 2-[6-[5-(6-methyl-2-pyridyl)-1H-imidazol-4-yl]-3-quinolyl]pyrimidine-4-carboxylate] | 200 to 1260 nM | 0.0398 to 0.316 nM
12 | Cc1cccc(-c2[nH]cnc2-c2ccc3ncc(-c4ccc(C(=O)OCC5CNC5)cn4)cc3c2)n1 [Compound 1103, azetidin-3-ylmethyl 6-[6-[5-(6-methyl-2-pyridyl)-1H-imidazol-4-yl]-3-quinolyl]pyridine-3-carboxylate] | 25.1 to 158 nM | < 0.0316 nM
13 | Cc1cccc(-c2[nH]cnc2-c2ccc3ncc(-c4csc(C(=O)O[C@@H]5CCNC5)n4)cc3c2)n1 [Compound 1104, [(3R)-pyrrolidin-3-yl] 4-[6-[5-(6-methyl-2-pyridyl)-1H-imidazol-4-yl]-3-quinolyl]thiazole-2-carboxylate] | 25.1 to 158 nM | 0.0398 to 0.316 nM
14 | Cc1cccc(-c2[nH]cnc2-c2ccc3ncc(-c4cc(C(=O)O[C@@H]5CCNC5)cs4)cc3c2)n1 [Compound 1105, [(3R)-pyrrolidin-3-yl] 5-[6-[5-(6-methyl-2-pyridyl)-1H-imidazol-4-yl]-3-quinolyl]thiophene-3-carboxylate] | 25.1 to 158 nM | < 0.0316 nM
15 | Cc1cccc(-c2[nH]cnc2-c2ccc3ncc(-c4cncc(CN5C[C@@H](C)N[C@@H](C)C5)c4)cc3c2)n1 [Compound 1106, 3-[5-[[(3S,5R)-3,5-dimethylpiperazin-1-yl]methyl]-3-pyridyl]-6-[5-(6-methyl-2-pyridyl)-1H-imidazol-4-yl]quinoline] | 25.1 to 158 nM | 0.0398 to 0.316 nM
16 | Cc1cccc(-c2[nH]cnc2-c2ccc3nccc(C(=O)O[C@H]4C[C@H](N)C4)c3c2)n1 [Compound 1107, (3-aminocyclobutyl) 6-[5-(6-methyl-2-pyridyl)-1H-imidazol-4-yl]quinoline-4-carboxylate] | 25.1 to 158 nM | 0.398 to 3.16 nM
17 | Cc1cccc(-c2[nH]cnc2-c2ccc3ncc(-c4nccc(C(=O)O)n4)cc3c2)n1 [Compound 1109, 2-[6-[5-(6-methyl-2-pyridyl)-1H-imidazol-4-yl]-3-quinolyl]pyrimidine-4-carboxylic acid] | 1580 to 10000 nM | 0.398 to 3.16 nM
18 | Cc1cccc(-c2[nH]cnc2-c2ccc3ncc(-c4ccc(C(=O)O[C@@H]5CCNC5)nc4)cc3c2)n1 [Compound 1110, [(3R)-pyrrolidin-3-yl] 5-[6-[5-(6-methyl-2-pyridyl)-1H-imidazol-4-yl]-3-quinolyl]pyridine-2-carboxylate] | 200 to 1260 nM | 0.0398 to 0.316 nM
19 | Cc1cccc(-c2[nH]cnc2-c2ccc3ncc(-c4ccc(C(=O)O[C@@H]5CCNC5)cn4)cc3c2)n1 [Compound 1111, [(3R)-pyrrolidin-3-yl] 6-[6-[5-(6-methyl-2-pyridyl)-1H-imidazol-4-yl]-3-quinolyl]pyridine-3-carboxylate] | 25.1 to 158 nM | < 0.0316 nM
20 | Cc1cccc(-c2[nH]cnc2-c2ccc3ncc(-c4cnc(C(=O)OC5CNC5)nc4)cc3c2)n1 [Compound 1112, azetidin-3-yl 5-[6-[5-(6-methyl-2-pyridyl)-1H-imidazol-4-yl]-3-quinolyl]pyrimidine-2-carboxylate] | 1580 to 10000 nM | 0.398 to 3.16 nM
21 | Cc1cccc(-c2[nH]cnc2-c2ccc3ncc(-c4cc(C(=O)OC5CCNCC5)ccn4)cc3c2)n1 [Compound 1115, 4-piperidyl 2-[6-[5-(6-methyl-2-pyridyl)-1H-imidazol-4-yl]-3-quinolyl]pyridine-4-carboxylate] | 25.1 to 158 nM | 0.0398 to 0.316 nM
22 | Cc1cccc(-c2[nH]cnc2-c2ccc3ncc(C(=O)OCC4CC5(CNC5)C4)cc3c2)n1 [Compound 1116, 2-azaspiro[3.3]heptan-6-ylmethyl 6-[5-(6-methyl-2-pyridyl)-1H-imidazol-4-yl]quinoline-3-carboxylate] | 200 to 1260 nM | 0.0398 to 0.316 nM
23 | Cc1cccc(-c2[nH]cnc2-c2ccc3ncc(-c4cncc(CN5CCNCC5)c4)cc3c2)n1 [Compound 1117, 6-[5-(6-methyl-2-pyridyl)-1H-imidazol-4-yl]-3-[5-(piperazin-1-ylmethyl)-3-pyridyl]quinoline] | 25.1 to 158 nM | 0.0398 to 0.316 nM
24 | Cc1cccc(-c2[nH]cnc2-c2ccc3ncc(-c4ncc(C5=CCNC5)s4)cc3c2)n1 [Compound 1118, 5-(2,5-dihydro-1H-pyrrol-3-yl)-2-[6-[5-(6-methyl-2-pyridyl)-1H-imidazol-4-yl]-3-quinolyl]thiazole] | < 20 nM | 0.0398 to 0.316 nM
25 | Cc1cccc(-c2[nH]cnc2-c2ccc3ncc(-c4ccc(C(=O)O[C@H]5CCNC5)cn4)cc3c2)n1 [Compound 1119, [(3S)-pyrrolidin-3-yl] 6-[6-[5-(6-methyl-2-pyridyl)-1H-imidazol-4-yl]-3-quinolyl]pyridine-3-carboxylate] | 25.1 to 158 nM | 0.0398 to 0.316 nM
26 | Cc1cccc(-c2[nH]cnc2-c2ccc3nccc(C(=O)OCCN4CCNCC4)c3c2)n1 [Compound 1121, 2-piperazin-1-ylethyl 6-[5-(6-methyl-2-pyridyl)-1H-imidazol-4-yl]quinoline-4-carboxylate] | 200 to 1260 nM | 0.398 to 3.16 nM
27 | Cc1cccc(-c2[nH]cnc2-c2ccc3ncc(-c4ccc(C(=O)O[C@H]5CCNC5)nc4)cc3c2)n1 [Compound 1122, [(3S)-pyrrolidin-3-yl] 5-[6-[5-(6-methyl-2-pyridyl)-1H-imidazol-4-yl]-3-quinolyl]pyridine-2-carboxylate] | 200 to 1260 nM | 0.0398 to 0.316 nM
28 | Cc1cccc(-c2[nH]cnc2-c2ccc3ncc(-c4cc(C(=O)OCCN5CCNCC5)ccn4)cc3c2)n1 [Compound 1123, 2-piperazin-1-ylethyl 2-[6-[5-(6-methyl-2-pyridyl)-1H-imidazol-4-yl]-3-quinolyl]pyridine-4-carboxylate] | 25.1 to 158 nM | 0.0398 to 0.316 nM
